Experimental data published in patent US20250228858A1, “ANTI-CANCER COMBINATION THERAPY” (Boehringer Ingelheim International GmbH, priority 2023, published 2025).
“And” between values parts separate entries of the source, which are not always exact repeats. Identical values can stand only once.

Assays:
[1] = system: HER2 Exon20^YVMA-mutant human non-small cell lung cancer (NSCLC) cell line PC-9_YVMA-5; test: PC-9_YVMA-5 subcutaneous xenograft, zongertinib with T-DM1; type: in vivo, NMRI-Foxn1^nu mice; conditions: alone or combined; for effect on tumor growth (median tumor volumes over time): T-DM1 5 mg/kg once weekly (q7d), zongertinib 5 mg/kg/day; for TGI: day 19; for TGI / tumors regressed completely / Regressions >30%: zongertinib 5 mg/kg bid, T-DM1 5 mg/kg q7d; for tumors regressed completely: number of tumors, 8 per group; for Regressions >30%: tumors regressed/total (Table 6, FIG. 6 waterfall day 24)
Protocol: The study is performed in human non-small cell lung cancer (NSCLC) cell line PC-9_YVMA-5 (PC-9 YVMA in short) grown as subcutaneous xenografts in NMRI-Foxn1^nu mice. Day 1 was the first day, day 21 the last day of treatment and day 24 the final day of analysis.
PC-9 is a non-small cell lung cancer cell line that can be obtained from the European Collection of Authenticated Cell Cultures (ECACC #90071810) and expresses an EGFR DEL19 mutation. To generate the PC-9_YVMA-5 clone driven by HER2 YVMA, parental PC-9 cells are ectopically transduced to express the HER2 YVMA isoform and the EGFR alleles (mutant and wild type) are deleted using CRISPR technology. Cells are cultured in T175 tissue culture flasks at 37° C. and 5% CO2. The medium used is RPMI 1640 supplemented with 10% FCS (Thermo Scientific #SH 30071.03), 0.5 μg/ml Puromycin (Gibco #A1113803) and 0.6 mg/ml Geneticin (Gibco #10131035). Cultures are split twice weekly with a ratio of 1:5-1:6.
To establish subcutaneous tumors, PC-9_YVMA-5 cells are harvested by centrifugation, washed and resuspended in PBS+5% FCS at 5×10^7 cells/ml. 100 μl cell suspension containing 5×10^6 cells is injected subcutaneously into the right flank of the mice (1 site per mouse). Mice are randomly distributed between the treatment and the vehicle control group (12 days after cell injection) when tumors are well established and have reached volumes of 90 to 149 mm^3.
Mice in the control group are treated with vehicle, i.e.: • (i) 0.5% Natrosol, administered twice daily for the duration of the treatment intragastrally by gavage needle with a volume of 10 ml/kg body weight; and • (ii) saline (0.9%), administered once weekly intravenously into the tail vein with a volume of 5 ml/kg.
Tumor volumes and side effects are monitored as described in Example 1 (see paragraph 1.1.6), except that control animals are sacrificed when the median tumor volume of the group reaches a size of approximately 370 mm^3.
The statistical evaluation of the tumor volume and the body weight is conducted on day 19 (last day of the controls). Apart from this, statistical analysis was performed as described in Example 1 (see paragraph 1.1.7), with no evaluation of tumor growth after stop of treatment.

[2] = system: HER2-overexpressing human breast cancer cell line BT-474; test: BT-474 orthotopic xenograft, zongertinib with T-DM1; type: in vivo, NMRI-Foxn1^nu mice; conditions: for stable disease / Regressions >30% / TGI: day 42; for stable disease: number of tumors; for stable disease / mice that lost some weight and had to be euthanized: zongertinib 10 mg/kg qdx42, T-DM1 6 mg/kg q21dx2, monotherapies; for Regressions >30%: tumors regressed/total (partial response); for Regressions >30% / TGI: zongertinib 10 mg/kg qdx42 p.o., T-DM1 6 mg/kg q21dx2 i.v., alone or combined
Protocol: The study is performed in human breast cancer cell line BT-474 grown as orthotopic xenografts in NMRI-Foxn1^nu mice. Day 1 was the first day, day 42 the last day of treatment and final day of analysis.
BT-474 is obtained and cultured as described in Example 10 (see paragraph 10.1.2).
Tumors are established and randomized as described in Example 10 (see paragraph 10.14), except that mice are randomly distributed between the treatment and the vehicle control group (22 days after cell injection) when tumors are well established and have reached volumes of 84 to 310 mm^3.
Tumor volumes and side effects are monitored as described in Example 1 (see paragraph 1.1.6), except that control animals are sacrificed when the median tumor volume of the group reaches a size of approximately 710 mm^3.
The statistical evaluation of the tumor volume and the body weight is conducted on day 42 (last day of the study). Apart from this, statistical analysis was performed as described in Example 1 (see paragraph 1.1.7), with no evaluation of tumor growth after stop of treatment.

Row | Molecule | effect on tumor growth (median tumor volumes over time) [1] | TGI [1] [%] | tumors regressed completely [1] | Regressions >30% [1] | Regressions >30% ([1]; listed as zongertinib) | stable disease [2] | Regressions >30% [2] | Regressions >30% ([2]; listed as zongertinib) | TGI [2] [%] | mice that lost some weight and had to be euthanized [2]
1 | C=CC(=O)NC1CCN(c2ncc3ncnc(Nc4ccc(Oc5ccc6c(c5)ncn6C)c(C)c4)c3n2)CC1 [Zongertinib, N-{1-[8-({3-methyl-4-[(1-methyl-1H-1,3-benzodiazol-5-yl)oxy]phenyl}amino)-[1,3]diazino [5,4-d]pyrimidin-2-yl]piperidin-4-yl}prop-2-enamide] | abolished tumor growth | 110 | none | 4/8 | 4 | no stable disease | 0/7 | no partial responses | 86 | 1 out of 8
2 | trastuzumab emtansine [T-DM1, reference compound] | abolished tumor growth | 112 | none | 4 and 4/8 | – | 3 | 1 and 1/5 | – | 85 | 2 out of 8
